Reference: patent US10662210B2, “Compositions and methods comprising osmium for the treatment of cancers” (Massachusetts Institute of Technology, priority 2014, dated 2020)

System: ct-DNA
Test: DNA binding kinetics (osmium bound to precipitated ct-DNA)
Conditions: 25 μM complex, 250 μM ct-DNA, 37° C.
Protocol: The osmium compounds were hypothesized to induce cell death through DNA interactions. Therefore, the interaction of 2 or 4 with pUC19 plasmid DNA was investigated using gel electrophoresis; the results of which are as shown in FIG. 6. As the concentration of 2 increased, there was a clear increase in the amount of nicked circular, and a concomitant decrease in the amount of supercoiled, plasmid DNA. At concentrations >250 μM, the bands in the gel smeared and then disappeared. […] The DNA binding kinetics of 2 and 4 were studied by measuring the amount of osmium bound to precipitated ct-DNA; the results of which are as shown in FIG. 7. The half-life of this reaction for 2 was 2 hours.
The amount of osmium covalently bound to ct-DNA was determined by modification of a previously reported protocol. A solution of ct-DNA (0.25 mM, nucleotide) was incubated with 2 or 4 at a bp:metal complex ratio of 5:1 at 37° C. in 1 mM sodium phosphate buffer, pH 7.4, containing 3 mM NaCl. At certain time points, a 250 μL aliquot was removed and the DNA was precipitated by adding 10 μL of NaCl (5 M) and 1.0 mL of EtOH (stored at 4° C.). The solution was centrifuged to remove DNA, and the concentration of unbound osmium was determined by GF-AAS.

Structure (SMILES): [N]#[Os]1([Cl])([Cl])([Cl])[N]2C=CC=c3ccc4c(c32)[N]1C=CC=4 [Complex 2, OsN(1,10-phenanthroline)Cl3]
- half-life of ct-DNA binding reaction: 2 h
